In patent publication US6451814B1, “Heterocyclic β-3 adrenergic receptor agonists” (Wyeth, priority 2000, dated 2002):
Values joined by “and” are separate entries in the source; they are usually repeats but may differ in a detail not shown here. Equal values may be shown once. Read-outs that look alike come from different tables or passages of the source.

What was measured:
[1] = molecular target: T1, human β3-adrenergic receptor (Homo sapiens, UniProt P13945); experiment: cAMP response (SPA kit) in CHO cells transfected with human β3 adrenergic receptor; assay type: cell-based; details: for EC50: CHO cells expressing human β3-AR, 10^-9 M to 10^-5 M, 30 min at 37° C., cAMP by SPA; for IA(β3): maximal response of compound compared to maximal response of isoproterenol at 10^-5 M, CHO cells, human β3-AR
T1 construct: Full length β3 AR clones (402 amino acids) containing the last 6 amino acids of hβ3—AR are prepared; expressed in transfected cells; host or cells: CHO cells
T1 sequence (P13945 whole entry): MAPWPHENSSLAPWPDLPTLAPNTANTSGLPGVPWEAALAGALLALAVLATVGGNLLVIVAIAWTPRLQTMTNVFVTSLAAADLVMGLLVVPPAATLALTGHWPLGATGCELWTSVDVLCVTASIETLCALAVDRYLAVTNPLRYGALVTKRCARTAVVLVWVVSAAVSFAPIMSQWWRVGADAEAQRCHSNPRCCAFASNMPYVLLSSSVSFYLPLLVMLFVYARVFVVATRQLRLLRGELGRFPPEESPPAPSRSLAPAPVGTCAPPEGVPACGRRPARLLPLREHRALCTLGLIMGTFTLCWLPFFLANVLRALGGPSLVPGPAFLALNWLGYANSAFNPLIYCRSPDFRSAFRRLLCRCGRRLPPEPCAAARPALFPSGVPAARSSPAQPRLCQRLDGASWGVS

Row | Compound | EC50 ([1]; read-out: EC50(β3)) [µM] | IA(β3) [1] | melting point [°C] | EC50 ([1]; EC50(β3, μM)) [µM]
1 | O=C(NCc1ccc(-n2cccn2)cc1C(F)(F)F)N1CCC(Nc2ccc(CCNC[C@H](O)COc3ccc(O)cc3)cc2)CC1 [Example 34, 4-(4-{2-[(2S)-2-Hydroxy-3-(4-hydroxy-phenoxy)-propylamino]-ethyl}-phenylamino)-piperidine-1-carboxylic Acid 4-pyrazol-1-yl-2-trifluoromethyl-benzylamide] | 0.062 | 0.83 | 96 to 100 | 
2 | Cc1ccc(CCCNC(=O)N2CCC(Nc3ccc(CCNC[C@H](O)COc4ccc(O)cc4)cc3)CC2)cc1 [Example 29, 4-(4-{2-[(2S)-2-Hydroxy-3-(4-hydroxy-phenoxy)-propylamino]-ethyl}-phenylamino)-piperidine-1-carboxylic Acid (3-p-tolyl-propyl)-amide] | 0.043 | 1 | 69 to 72 | 
3 | CC(C)CCNC(=O)N1CCC(Nc2ccc(CCNC[C@H](O)COc3ccc(O)cc3)cc2)CC1 [Example 35, 4-(4-{2-[(2S)-2-Hydroxy-3-(4-hydroxy-phenoxy)-propylamino]-ethyl}-phenylamino)-piperidine-1-carboxylic Acid (3-methyl-butyl)-amide] | 0.133 | 0.96 | 72 to 77 | 
4 | O=C(NCCCc1cccs1)N1CCC(Nc2ccc(CCNC[C@H](O)COc3ccc(O)cc3)cc2)CC1 [Example 23, 4-(4-{2-[(2S)-2-Hydroxy-3-(4-hydroxy-phenoxy)-propylamino]-ethyl}-phenylamino)-piperidine-1-carboxylic Acid (3-thiophen-2-yl-propyl)-amide] | 0.01 | 0.88 | 73 to 77 | 
5 | CCCCCCCCNC(=O)N1CCC(S(=O)(=O)c2ccc(CCNC[C@H](O)COc3ccc(O)cc3)cc2)CC1 [Example 47, 4-(4-{2-[(2S)-2-Hydroxy-3-(4-hydroxy-phenoxy)-propylamino]-ethyl}-benzenesulfonyl)-piperidine-1-carboxylic Acid Octylamide] | 0.031 | 1 | 52 to 56 | 
6 | CCCCCCCCNC(=O)N1CCC(S(=O)(=O)c2ccc(CCNC[C@H](O)COc3ccc(O)c(C)c3)cc2)CC1 [Example 48, 4-(4-{2-[(2S)-2-Hydroxy-3-(4-hydroxy-3-methyl-phenoxy)-propylamino]-ethyl}-benzenesulfonyl)-piperidine-1-carboxylic Acid Octylamide] | 0.05 | 0.7 | 58 to 71 | 
7 | NC(=O)N1CCC(Nc2ccc(CCNC[C@H](O)COc3ccc(O)cc3)cc2)CC1 [Example 18, 4-(4-{2-[(2S)-2-Hydroxy-3-(4-hydroxy-phenoxy)-propylamino]-ethyl}-phenylamino)-piperidine-1-carboxylic Acid Amide] |  | 1 | 84 to 89 | 
8 | CCCCCCNC(=O)N1CCC(Sc2ccc(CCNC[C@H](O)COc3ccc(O)cc3)cc2)CC1 [Example 41, N-hexyl-4-{[4-(2-{[(2S)-2-hydroxy-3-(4-hydroxyphenoxy)propyl]amino}ethyl)phenyl]sulfanyl}-1-piperidinecarboxamide] | 0.62 | 0.84 | 181 to 195 | 
9 | CCCCCCCCNC(=O)N1CCC(Nc2ccc(CCNC[C@H](O)COc3ccc(O)cc3Cl)cc2)CC1 [Example 16, 4-[4-(2-{[(2S)-3-(2-Chloro-4-hydroxyphenoxy)-2-hydroxypropyl]amino}ethyl)anilino]-N-octyl-1-piperidinecarboxamide] | 0.542 | 1 | 61 to 65 | 
10 | CN(C)C(=O)Oc1ccc(CCNC(=O)N2CCC(Nc3ccc(CCNC[C@H](O)COc4ccc(O)cc4)cc3)CC2)cc1 [Example 74, Dimethyl-carbamic Acid 4-(2-{[4-(4-{2-[(2S)-2-hydroxy-3-(4-hydroxy-phenoxy)-propylamino]-ethyl}-phenylamino)-piperidine-1-carbonyl]-amino}-ethyl)-phenyl Ester] |  | 0.88 | 86 to 88 | 0.045
11 | O=C(NCc1cccc(F)c1)N1CCC(Nc2ccc(CCNC[C@H](O)COc3ccc(O)cc3)cc2)CC1 [Example 27, 4-(4-{2-[(2S)-2-Hydroxy-3-(4-hydroxy-phenoxy)-propylamino]-ethyl}-phenylamino)-piperidine-1-carboxylic Acid 3-fluoro-benzylamide] | 0.06 | 0.86 | 68 to 73 | 
12 | O=C(NCC(F)(F)F)N1CCC(Nc2ccc(CCNC[C@H](O)COc3ccc(O)cc3)cc2)CC1 [Example 13, 4-(4-{2-[(2S)-2-Hydroxy-3-(4-hydroxy-phenoxy)-propylamino]-ethyl}-phenylamino)-piperidine-1-carboxylic Acid (2,2,2-trifluoro-ethyl)-amide] | 0.066 | 0.82 | 89 to 94 | 
13 | O=C(NCc1ccccc1F)N1CCC(Nc2ccc(CCNC[C@H](O)COc3ccc(O)cc3)cc2)CC1 [Example 26, 4-(4-{2-[(2S)-2-Hydroxy-3-(4-hydroxy-phenoxy)-propylamino]-ethyl}-phenylamino)-piperidine-1-carboxylic Acid 2-fluoro-benzylamide] |  | 0.91 | 79 to 84 | 
14 | COc1ccc(C2CCN(C(=O)N3CCC(Nc4ccc(CCNC[C@H](O)COc5ccc(O)cc5)cc4)CC3)CC2)cc1OC1CCCC1 [Example 17, [4-(3-Cyclopentyloxy-4-methoxy-phenyl)-piperidin-1-yl]-[4-(4-{2-[(2S)-2-hydroxy-3-(4-hydroxy-phenoxy)-propylamino]-ethyl}-phenylamino)-piperidin-1-yl]-methanone] | 0.015 | 0.63 | 92 to 95 | 
15 | O=C(NCC1(c2ccccc2)CCCC1)N1CCC(Sc2ccc(CCNC[C@H](O)COc3ccc(O)cc3)cc2)CC1 [Example 43, 4-(4-{2-[(2S)-2-Hydroxy-3-(4-hydroxy-phenoxy)-propylamino]-ethyl}-phenylsulfanyl)-piperidine-1-carboxylic Acid (1-phenyl-cyclopentylmethyl)-amide] | 0.39 | 0.81 | 132 | 
16 | O=C(NCc1c(F)cccc1F)N1CCC(Nc2ccc(CCNC[C@H](O)COc3ccc(O)cc3)cc2)CC1 [Example 32, 4-(4-{2-[(2S)-2-Hydroxy-3-(4-hydroxy-phenoxy)-propylamino]-ethyl}-phenylamino)-piperidine-1-carboxylic Acid 2,6-difluoro-benzylamide] |  | 1.04 and 0.77 | 80 to 84 | 

The next lines start with results.

Row | EC50 ([1]; read-out: EC50(β3)) [µM] | IA(β3) [1] | melting point [°C] | Compound | EC50 ([1]; EC50(β3, μM)) [µM]
17 |  | 0.94 | 60 to 62 | COc1ccc(CCCCNC(=O)N2CCC(Nc3ccc(CCNCC(O)COc4ccc(O)cc4)cc3)CC2)cc1OC (stereo not shown) [Example 57, 4-(4-{2-[2-Hydroxy-3-(4-hydroxy-phenoxy)-propylamino]-ethyl}-phenylamino)-piperidine-1-carboxylic Acid [4-(3,4-dimethoxy-phenyl)-butyl]-amide] | 
18 | 0.125 | 0.78 | 64 to 68 | CCCCCCCCS(=O)(=O)N1CCC(Nc2ccc(CCNC[C@H](O)COc3ccc(O)cc3)cc2)CC1 [Example 111] | 
19 | 0.074 | 0.9 | 57 to 59 | CCCCCC(=O)N1CCC(Nc2ccc(CCNC[C@H](O)COc3ccc(O)cc3)cc2)CC1 [Example 103, 1-[4-(4-{2-[(2S)-2-Hydroxy-3-(4-hydroxy-phenoxy)-propylamino]-ethyl}-phenylamino)-piperidin-1-yl]-hexan-1-one] | 
20 | 0.3 | 0.57 | 60 to 62 | CCCCCCCCNC(=O)N1CCC(Nc2ccc(CCNC[C@H](O)COc3ccc(O)c(F)c3)cc2)CC1 [Example 65, 4-(4-{2-[(2S)-3-(3-Fluoro-4-hydroxy-phenoxy)-2-hydroxy-propylamino]-ethyl}-phenylamino)-piperidine-1-carboxylic Acid Octylamide] | 
21 | 0.106 | 1 | 76 to 78 | O=C(NCC1CCCC1)N1CCC(Nc2ccc(CCNC[C@H](O)COc3ccc(O)cc3)cc2)CC1 [Example 70, 4-(4-{2-[(2S)-2-Hydroxy-3-(4-hydroxy-phenoxy)-propylamino]-ethyl}-phenylamino)-piperidine-1-carboxylic Acid Cyclopentylmethyl-amide] | 
22 | 0.003 | 1 | 160 to 162 | CCCCCCCCNC(=O)N1CCC(Nc2ccc(CCNC[C@H](O)c3ccc(O)c(NS(C)(=O)=O)c3)cc2)CC1 [Example 59, 4-(4-{2-[(2R)-2-Hydroxy-2-(4-hydroxy-3-methanesulfonylamino-phenyl)-ethylamino]-ethyl}-phenylamino)-piperidine-1-carboxylic Acidoctylamide] | 
23 | 0.039 | 1.1 | 69 to 71 | O=C(NCCCC1CCCCC1)N1CCC(Nc2ccc(CCNC[C@H](O)COc3ccc(O)cc3)cc2)CC1 [Example 68, 4-(4-{2-[(2S)-2-Hydroxy-3-(4-hydroxy-phenoxy)-propylamino]-ethyl}-phenylamino)-piperidine-1-carboxylic Acid (3-cyclohexyl-propyl)-amide] | 
24 |  | 1 | 116 to 118 | CS(=O)(=O)Nc1cc([C@@H](O)CNCCc2ccc(NC3CCN(C(=O)NCc4cc(F)ccc4F)CC3)cc2)ccc1O [Example 76, 4-(4-{2-[(2R)-2-Hydroxy-2-(4-hydroxY-3-methanesulfonylamino-phenyl)-ethylamino]-ethyl}-phenylamino)-piperidine-1-carboxylic Acid 2,5-difluoro-benzylamide] | 
